Assay results: ChEMBL document CHEMBL3600346, “Synthesis and carbonic anhydrase inhibitory properties of novel uracil derivatives” (Bioorg Med Chem Lett, 2015)
The source made the active and inactive calls. No cut-off for these calls is given here.

Tests used:
[1] = target: T1, Carbonic anhydrase 1 (Homo sapiens, UniProt P00915); assay: Inhibition of human erythrocytes CA1 using 4-nitrophenylacetate as substrate by esterase assay
Target sequence in this assay (P00915 whole entry): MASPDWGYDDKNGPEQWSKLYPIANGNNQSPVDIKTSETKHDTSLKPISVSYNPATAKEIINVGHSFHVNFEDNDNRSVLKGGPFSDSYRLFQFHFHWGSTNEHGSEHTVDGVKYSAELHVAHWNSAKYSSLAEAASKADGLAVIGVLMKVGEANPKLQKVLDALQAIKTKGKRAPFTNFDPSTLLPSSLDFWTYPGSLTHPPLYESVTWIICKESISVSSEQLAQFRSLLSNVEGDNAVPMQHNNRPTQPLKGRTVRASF

[2] = target: Carbonic anhydrase 2 (Homo sapiens, UniProt P00918); assay: Inhibition of human erythrocytes CA2 using 4-nitrophenylacetate as substrate by esterase assay
[3] = target: T1, Carbonic anhydrase 1; assay: Competitive inhibition of human erythrocytes CA1 using 4-nitrophenylacetate as substrate by Lineweaver-Burk plot analysis
Target sequence in this assay (P00915 2-261 limits assumed): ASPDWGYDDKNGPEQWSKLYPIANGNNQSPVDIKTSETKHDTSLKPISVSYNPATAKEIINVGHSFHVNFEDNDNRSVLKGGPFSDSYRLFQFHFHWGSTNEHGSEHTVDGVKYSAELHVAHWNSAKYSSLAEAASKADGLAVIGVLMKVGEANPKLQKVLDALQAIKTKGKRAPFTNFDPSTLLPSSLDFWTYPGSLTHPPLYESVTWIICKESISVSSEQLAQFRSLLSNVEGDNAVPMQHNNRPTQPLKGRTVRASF

## CC(=O)n1cc(Br)c(=O)[nH]c1=O
[1]
  Ki: 464 µM
[2]; read-out: Ki
  Ki: 778 µM
[3]
  inhibition mode: Active

## Cc1ccc(S(=O)(=O)n2cc(Br)c(=O)[nH]c2=O)cc1
[1]
  Ki: 10.8 µM
[2]; read-out: Ki
  Ki: 28.9 µM
[3]
  inhibition mode: Active

## Oc1cccc(O)c1
[3]
  inhibition mode: Active

## Cn1ccc(=O)n(C)c1=O
[1]
  Ki: 316 µM
[2]; read-out: Ki
  Ki: 166 µM
[3]
  inhibition mode: Active

## Oc1ccccc1
[3]
  inhibition: Active

## Cc1cc(O)nc(O)n1
[1]
  Ki: 57.8 µM
[2]
  Ki: Not Active
[3]
  inhibition: Active

## CS(=O)(=O)n1cc(Br)c(=O)[nH]c1=O
[1]
  Ki: 428 µM
[2]; read-out: Ki
  Ki: 645 µM
[3]
  inhibition mode: Active

## Oc1ccccc1O
[3]
  inhibition: Active

## O=c1[nH]cc(CO)c(=O)[nH]1
[1]
  Ki: 49.5 µM
[2]
  Ki: Not Active
